Earlier results in article PMC7395068, “The evolution of strategies to minimise the risk of human drug-induced liver injury (DILI) in drug discovery and development” (Archives of Toxicology, 2020).
Read-outs that look alike come from different tables or passages of the source.

Details: cited from earlier work
[1] = binary in vivo DILI call given beside the severity category, ref Chen 2016
[2] = human DILI concern category (LTKB DILIrank), ref Chen 2016

CO[C@H]1/C=C/O[C@@]2(C)Oc3c(C)c(O)c4c(c3C2=O)C2=NC3(CCN(CC(C)C)CC3)NC2=C(NC(=O)/C(C)=C\C=C\[C@H](C)[C@H](O)[C@@H](C)[C@@H](O)[C@@H](C)[C@H](OC(C)=O)[C@@H]1C)C4=O [rifabutin]
DILI +VE (5-8), DILI -VE (-4) [1]: +VE | DILI severity category [2]: vLess-DILI-Concern

CC(N)C12CC3CC(CC(C3)C1)C2 (stereo not shown) [rimantadine]
DILI +VE (5-8), DILI -VE (-4) [1]: -VE | DILI severity category [2]: vNo-DILI-Concern

CCN(C)C(=O)Oc1cccc([C@H](C)N(C)C)c1 [rivastigmine]
DILI +VE (5-8), DILI -VE (-4) [1]: +VE | DILI severity category [2]: vLess-DILI-Concern

CN(C)CCc1c[nH]c2ccc(Cn3cncn3)cc12 [rizatriptan]
DILI +VE (5-8), DILI -VE (-4) [1]: -VE | DILI severity category [2]: vNo-DILI-Concern

C=CC[N+]1([C@H]2C[C@H]3[C@@H]4CC[C@H]5C[C@H](O)[C@@H](N6CCOCC6)C[C@]5(C)[C@H]4CC[C@]3(C)[C@H]2OC(C)=O)CCCC1 [rocuronium]
DILI +VE (5-8), DILI -VE (-4) (in vivo): -VE | DILI severity category (in vivo): vNo-DILI-Concern

CCCN(CCC)CCc1cccc2c1CC(=O)N2 [ropinirole]
DILI +VE (5-8), DILI -VE (-4) [1]: +VE | DILI severity category [2]: vLess-DILI-Concern

CC(C)(C)NCC(O)c1ccc(O)c(CO)c1 (stereo not shown) [salbutamol]
DILI +VE (5-8), DILI -VE (-4) [1]: -VE | DILI severity category [2]: vNo-DILI-Concern

O=C(Oc1ccccc1C(=O)O)c1ccccc1O [salsalate]
DILI +VE (5-8), DILI -VE (-4) [1]: +VE | DILI severity category [2]: vLess-DILI-Concern

C=CCC1(C(C)CCC)C(=O)NC(=O)NC1=O (stereo not shown) [secobarbital]
DILI +VE (5-8), DILI -VE (-4) [1]: -VE | DILI severity category [2]: Ambiguous DILI-concern

CC(C)CC(N(C)C)C1(c2ccc(Cl)cc2)CCC1 (stereo not shown) [sibutramine]
DILI +VE (5-8), DILI -VE (-4) (in vivo): +VE | DILI severity category (in vivo): vLess-DILI-Concern

C[C@H](Cc1cc2c(c(C(N)=O)c1)N(CCCO)CC2)NCCOc1ccccc1OCC(F)(F)F [silodosin]
DILI +VE (5-8), DILI -VE (-4) [1]: -VE | DILI severity category [2]: Ambiguous DILI-concern

CSCC[C@H](NC(=O)[C@H](Cc1ccc(OS(=O)(=O)O)cc1)NC(=O)[C@@H](N)CC(=O)O)C(=O)NCC(=O)N[C@@H](Cc1c[nH]c2ccccc12)C(=O)N[C@@H](CCSC)C(=O)N[C@@H](CC(=O)O)C(=O)N[C@@H](Cc1ccccc1)C(N)=O [sincalide]
DILI +VE (5-8), DILI -VE (-4) (in vivo): -VE | DILI severity category (in vivo): vNo-DILI-Concern

CO[C@H]1C[C@@H]2CC[C@@H](C)[C@@](O)(O2)C(=O)C(=O)N2CCCC[C@H]2C(=O)O[C@H]([C@H](C)C[C@@H]2CC[C@@H](O)[C@H](OC)C2)CC(=O)[C@H](C)/C=C(\C)[C@@H](O)[C@@H](OC)C(=O)[C@H](C)C[C@H](C)/C=C/C=C/C=C/1C [sirolimus]
DILI +VE (5-8), DILI -VE (-4) [1]: +VE | DILI severity category [2]: vLess-DILI-Concern

N[C@@H](CC(=O)N1CCn2c(nnc2C(F)(F)F)C1)Cc1cc(F)c(F)cc1F [sitagliptin]
DILI +VE (5-8), DILI -VE (-4) [1]: +VE | DILI severity category [2]: vLess-DILI-Concern

O=C([O-])O.[Na+] [sodium bicarbonate]
DILI +VE (5-8), DILI -VE (-4) (in vivo): -VE

CC(O)C(=O)[O-].[Na+] (stereo not shown) [sodium lactate]
DILI +VE (5-8), DILI -VE (-4) (in vivo): -VE | DILI severity category (in vivo): vNo-DILI-Concern

O=S([O-])([O-])=S.[Na+].[Na+] [sodium thiosulfate]
DILI +VE (5-8), DILI -VE (-4) (in vivo): -VE | DILI severity category (in vivo): vNo-DILI-Concern

O=C(O)[C@@H](S)[C@@H](S)C(=O)O [succimer]
DILI +VE (5-8), DILI -VE (-4) [1]: +VE | DILI severity category [2]: vLess-DILI-Concern

C[N+](C)(C)CCOC(=O)CCC(=O)OCC[N+](C)(C)C [succinylcholine]
DILI +VE (5-8), DILI -VE (-4) [1]: -VE | DILI severity category [2]: vNo-DILI-Concern

CCCCCCCCNC(C)C(O)c1ccc(SC(C)C)cc1 (stereo not shown) [sulcotidil]
DILI +VE (5-8), DILI -VE (-4) (in vivo): +VE | DILI severity category (in vivo): vMost-DILI-Concern

NC(=O)NS(=O)(=O)c1ccc(N)cc1 [sulfacarbamide]
DILI +VE (5-8), DILI -VE (-4) [1]: +VE | DILI severity category [2]: vMost-DILI-Concern

Nc1ccc(S(=O)(=O)Nc2ncccn2)cc1 [sulfadiazine]
DILI +VE (5-8), DILI -VE (-4) [1]: +VE | DILI severity category [2]: vLess-DILI-Concern

Nc1ccc(S(=O)(=O)Nc2nccs2)cc1 [sulfathiazole]
DILI +VE (5-8), DILI -VE (-4) [1]: +VE | DILI severity category [2]: vMost-DILI-Concern

CN1CC(=O)N2[C@H](c3ccc4c(c3)OCO4)c3[nH]c4ccccc4c3C[C@@H]2C1=O [tadalafil]
DILI +VE (5-8), DILI -VE (-4) [1]: -VE | DILI severity category [2]: Ambiguous DILI-concern

CC[C@@H](c1cccc(O)c1)[C@@H](C)CN(C)C [tapentadol]
DILI +VE (5-8), DILI -VE (-4) [1]: -VE | DILI severity category [2]: vNo-DILI-Concern

CCCCCNC(=N)N/N=C/c1c[nH]c2ccc(OC)cc12 [tegaserod]
DILI +VE (5-8), DILI -VE (-4) [1]: -VE | DILI severity category [2]: Ambiguous DILI-concern

COc1cc([C@@H]2c3cc4c(cc3[C@@H](O[C@@H]3O[C@@H]5CO[C@@H](c6cccs6)O[C@H]5[C@H](O)[C@H]3O)[C@H]3COC(=O)[C@H]23)OCO4)cc(OC)c1O [teniposide]
DILI +VE (5-8), DILI -VE (-4) [1]: +VE | DILI severity category [2]: vLess-DILI-Concern

COc1cc2c(cc1OC)C1CC(=O)C(CC(C)C)CN1CC2 (stereo not shown) [tetrabenazine]
DILI +VE (5-8), DILI -VE (-4) [1]: -VE | DILI severity category [2]: Ambiguous DILI-concern

C[C@H](O)[C@H](O)[C@H]1CNc2nc(N)[nH]c(=O)c2N1 [tetrahydrobiopterin]
DILI +VE (5-8), DILI -VE (-4) [1]: -VE | DILI severity category [2]: vNo-DILI-Concern

O=C1CCC(N2C(=O)c3ccccc3C2=O)C(=O)N1 (stereo not shown) [thalidomide]
DILI +VE (5-8), DILI -VE (-4) [1]: +VE | DILI severity category [2]: vLess-DILI-Concern

c1ccc2[nH]c(-c3cscn3)nc2c1 [thiabendazole]
DILI +VE (5-8), DILI -VE (-4) [1]: +VE | DILI severity category [2]: vMost-DILI-Concern

S=P(N1CC1)(N1CC1)N1CC1 [thiotepa]
DILI +VE (5-8), DILI -VE (-4) [1]: +VE | DILI severity category [2]: vLess-DILI-Concern

Cc1ccsc1C(=CCCN1CCC[C@@H](C(=O)O)C1)c1sccc1C [tiagabine]
DILI +VE (5-8), DILI -VE (-4) [1]: -VE | DILI severity category [2]: Ambiguous DILI-concern

CN(C)c1cc(NC(=O)CNC(C)(C)C)c(O)c2c1C[C@H]1C[C@H]3[C@H](N(C)C)C(O)=C(C(N)=O)C(=O)[C@@]3(O)C(O)=C1C2=O [tigecycline]
DILI +VE (5-8), DILI -VE (-4) [1]: -VE | DILI severity category [2]: Ambiguous DILI-concern

Cc1cc(Br)c(O)c2ncccc12 [tilbroquinol]
DILI +VE (5-8), DILI -VE (-4) [1]: +VE | DILI severity category [2]: vMost-DILI-Concern

O=P(O)(O)C(Sc1ccc(Cl)cc1)P(=O)(O)O [tiludronate]
DILI +VE (5-8), DILI -VE (-4) [1]: -VE | DILI severity category [2]: vNo-DILI-Concern

CC(C)(C)NC[C@H](O)COc1nsnc1N1CCOCC1 [timolol]
DILI +VE (5-8), DILI -VE (-4) [1]: -VE | DILI severity category [2]: Ambiguous DILI-concern

CC(S)C(=O)NCC(=O)O (stereo not shown) [tiopronin]
DILI +VE (5-8), DILI -VE (-4) [1]: -VE | DILI severity category [2]: Ambiguous DILI-concern

CCCCS(=O)(=O)N[C@@H](Cc1ccc(OCCCCC2CCNCC2)cc1)C(=O)O [tirofiban]
DILI +VE (5-8), DILI -VE (-4) [1]: -VE | DILI severity category [2]: vNo-DILI-Concern

Clc1ccc2nsnc2c1NC1=NCCN1 [tizanidine]
DILI +VE (5-8), DILI -VE (-4) (in vivo): +VE | DILI severity category (in vivo): vMost-DILI-Concern

COc1ccc2c(C(=S)N(C)CC(=O)O)cccc2c1C(F)(F)F [tolrestat]
DILI +VE (5-8), DILI -VE (-4) [1]: +VE | DILI severity category [2]: vMost-DILI-Concern

Cc1ccccc1C(=O)Nc1ccc(C(=O)N2CCCC(O)c3cc(Cl)ccc32)c(C)c1 (stereo not shown) [tolvaptan]
DILI +VE (5-8), DILI -VE (-4) [1]: +VE | DILI severity category [2]: vMost-DILI-Concern

CC[C@@]1(O)C(=O)OCc2c1cc1n(c2=O)Cc2cc3c(CN(C)C)c(O)ccc3nc2-1 [topotecan]
DILI +VE (5-8), DILI -VE (-4) [1]: -VE | DILI severity category [2]: vNo-DILI-Concern

CCOC(=O)[C@H](CCc1ccccc1)N[C@@H](C)C(=O)N1[C@H](C(=O)O)C[C@H]2CCCC[C@@H]21 [trandolapril]
DILI +VE (5-8), DILI -VE (-4) [1]: +VE | DILI severity category [2]: vLess-DILI-Concern

CC(=O)Oc1ccc(C2(c3ccc(OC(C)=O)cc3)C(=O)N(C(C)=O)c3ccccc32)cc1 [triacetyldiphenolisatin]
DILI +VE (5-8), DILI -VE (-4) [1]: +VE | DILI severity category [2]: vMost-DILI-Concern

Nc1nc(N)c2nc(-c3ccccc3)c(N)nc2n1 [triamterene]
DILI +VE (5-8), DILI -VE (-4) [1]: +VE | DILI severity category [2]: vLess-DILI-Concern

Cc1nnc2n1-c1ccc(Cl)cc1C(c1ccccc1Cl)=NC2 [triazolam]
DILI +VE (5-8), DILI -VE (-4) (in vivo): -VE | DILI severity category (in vivo): Ambiguous DILI-concern

Cl.Cl.NCCNCCNCCN [trientine hydrochloride]
DILI +VE (5-8), DILI -VE (-4) (in vivo): -VE | DILI severity category (in vivo): vNo-DILI-Concern

COc1cc(C(=O)NCc2ccc(OCCN(C)C)cc2)cc(OC)c1OC [trimethobenzamide]
DILI +VE (5-8), DILI -VE (-4) [1]: -VE | DILI severity category [2]: Ambiguous DILI-concern
